# Assay results from patent publication US10266497B2 (ABIDE THERAPEUTICS, INC., priority 2017, dated 2019).
# Read-outs that look alike come from different tables or passages of the source.
# Columns and labels:
# MAGL [1] = biological target: T1, MAGL (Mus musculus, UniProt O35678); assay: In vitro competitive activity-based protein profiling, MAGL, mouse; details: read-out: MAGL % inh. 1 μM (mouse)
# T1 sequence (O35678 1-303): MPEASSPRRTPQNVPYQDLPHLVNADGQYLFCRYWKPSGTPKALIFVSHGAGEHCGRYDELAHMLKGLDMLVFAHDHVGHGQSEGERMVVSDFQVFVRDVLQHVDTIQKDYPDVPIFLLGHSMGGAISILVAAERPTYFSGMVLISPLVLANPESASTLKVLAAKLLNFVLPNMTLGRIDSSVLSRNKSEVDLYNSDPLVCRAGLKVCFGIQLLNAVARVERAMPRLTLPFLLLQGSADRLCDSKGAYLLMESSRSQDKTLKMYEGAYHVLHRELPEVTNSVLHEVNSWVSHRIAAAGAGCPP
# MAGL [2] = biological target: T1, MAGL; assay: Mouse brain proteomes from inhibitor treated mice (oral gavage, sacrificed 4 h after administration); assay type: in vivo; set-up: mouse brain membrane fraction for mouse assays; from tissue; host or cells: mouse brain (membrane fraction in vitro; brain proteomes of treated C57Bl/6J mice in vivo); details: 5 mg/kg oral gavage, brain proteome 4 h after administration, read-out: MAGL % inh. 5 mg/kg (mouse)
# MAGL [3] = biological target: T2, MAGL (Homo sapiens, UniProt Q99685); assay: In vitro competitive activity-based protein profiling, MAGL, human; details: read-out: MAGL % inh. 1 μM (human)
# T2 sequence (Q99685 1-303): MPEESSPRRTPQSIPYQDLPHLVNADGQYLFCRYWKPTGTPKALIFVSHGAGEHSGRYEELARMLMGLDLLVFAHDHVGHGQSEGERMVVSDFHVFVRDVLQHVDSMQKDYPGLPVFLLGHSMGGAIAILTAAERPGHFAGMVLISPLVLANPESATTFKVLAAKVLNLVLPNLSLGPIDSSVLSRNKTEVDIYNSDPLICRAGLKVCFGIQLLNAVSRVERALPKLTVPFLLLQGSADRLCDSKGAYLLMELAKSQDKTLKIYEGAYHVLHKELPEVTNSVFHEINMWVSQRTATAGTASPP
# FAAH [4] = biological target: T3, FAAH (Mus musculus, UniProt O08914); assay: In vitro competitive activity-based protein profiling, FAAH, mouse; details: read-out: FAAH % inh. 1 μM (mouse)
# T3 sequence (O08914 1-579): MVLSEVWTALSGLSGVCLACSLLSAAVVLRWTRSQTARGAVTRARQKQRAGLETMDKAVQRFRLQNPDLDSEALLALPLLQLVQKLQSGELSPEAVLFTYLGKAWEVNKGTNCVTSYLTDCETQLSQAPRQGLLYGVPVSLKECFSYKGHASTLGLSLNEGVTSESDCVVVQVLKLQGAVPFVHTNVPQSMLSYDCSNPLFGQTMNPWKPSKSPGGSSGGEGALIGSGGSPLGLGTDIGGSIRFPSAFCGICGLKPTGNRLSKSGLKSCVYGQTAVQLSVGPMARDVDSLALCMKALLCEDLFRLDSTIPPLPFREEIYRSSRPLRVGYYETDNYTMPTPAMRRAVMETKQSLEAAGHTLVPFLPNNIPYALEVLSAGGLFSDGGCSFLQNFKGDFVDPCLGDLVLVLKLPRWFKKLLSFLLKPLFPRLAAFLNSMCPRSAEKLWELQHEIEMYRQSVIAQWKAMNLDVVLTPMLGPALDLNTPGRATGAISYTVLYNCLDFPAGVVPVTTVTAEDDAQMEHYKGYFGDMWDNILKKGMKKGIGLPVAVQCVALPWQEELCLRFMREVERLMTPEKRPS
# FAAH [5] = biological target: T4, FAAH (Homo sapiens, UniProt O00519); assay: In vitro competitive activity-based protein profiling, FAAH, human; details: for inhibition at 1 µM: read-out: FAAH % inh. 1 μM (human)
# T4 sequence (O00519 1-579): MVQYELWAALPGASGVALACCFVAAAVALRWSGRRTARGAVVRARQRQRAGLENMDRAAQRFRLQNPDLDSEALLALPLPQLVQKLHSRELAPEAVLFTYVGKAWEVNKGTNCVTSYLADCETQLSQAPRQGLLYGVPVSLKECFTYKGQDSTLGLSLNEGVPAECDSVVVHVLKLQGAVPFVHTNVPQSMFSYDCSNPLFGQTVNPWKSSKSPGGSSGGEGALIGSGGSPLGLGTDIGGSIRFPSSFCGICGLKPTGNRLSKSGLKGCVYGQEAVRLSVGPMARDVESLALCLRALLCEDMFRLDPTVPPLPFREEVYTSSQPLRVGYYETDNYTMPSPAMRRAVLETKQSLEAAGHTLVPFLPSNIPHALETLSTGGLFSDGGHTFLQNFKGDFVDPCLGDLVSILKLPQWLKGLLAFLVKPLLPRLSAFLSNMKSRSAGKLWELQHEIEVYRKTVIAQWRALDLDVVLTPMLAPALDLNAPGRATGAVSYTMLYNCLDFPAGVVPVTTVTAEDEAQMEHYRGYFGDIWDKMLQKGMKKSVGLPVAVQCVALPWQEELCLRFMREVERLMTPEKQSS
inhibition at 1 µM (MAGL [1]),inhibition at 5 mg/kg (MAGL [2]),inhibition at 1 µM (MAGL [3]),inhibition at 1 µM (FAAH [4]),inhibition at 1 µM (FAAH [5]),IC50 (FAAH [5]),inhibition at 5 mg/kg (MAGL [2]; C57Bl/6J mice),Compound
> 75%,0 to 25%,> 75%,–,–,–,–,"O=C(O)c1nn(C(=O)N2CCC3(CCN(Cc4cccc(Cl)c4C(F)(F)F)C3)CC2)cc1Cl [Example 26, 4-Chloro-1-(2-(3-chloro-2-(trifluoromethyl)benzyl)-2,8-diazaspiro[4.5]decane-8-carbonyl)-1H-pyrazole-3-carboxylic Acid]"
> 75%,0 to 25%,> 75%,–,–,–,–,"NC(=O)c1ccn(C(=O)N2CC3CN(Cc4ccc(C5(C(=O)O)CCOCC5)cc4C(F)(F)F)CC3C2)n1 (centres unmarked) [Example 35, 4-(4-((5-(3-carbamoyl-1H-pyrazole-1-carbonyl)hexahydropyrrolo[3,4-c]pyrrol-2(1H)-yl)methyl)-3-(trifluoromethyl)phenyl)tetrahydro-2H-pyran-4-carboxylic Acid]"
> 75%,–,> 75%,0 to 25%,0 to 25%,–,–,"O=C(O)c1ccn(C(=O)N2CCN(Cc3nc4ccccc4s3)CC2)n1 [Example 189, 1-(4-(benzo[d]thiazol-2-ylmethyl)piperazine-1-carbonyl)-1H-pyrazole-3-carboxylic acid]"
0 to 25%,–,25 to 50%,50 to 75%,25 to 50%,–,–,"O=C(O)c1ccn(C(=O)N2CCC(NCc3cccc(Oc4ccc(Cl)cc4)c3)CC2)n1 [Example 190, 1-(4-((3-(4-chlorophenoxy)benzyl)amino)piper-idine-1-carbonyl)-1H-pyrazole-3-carboxylic acid]"
0 to 25%,–,> 75%,> 75%,> 75%,–,–,"NC(=O)c1ccn(C(=O)N2CCC3(CCN(Cc4ccc(N5CCCC5)cc4C(F)(F)F)C3)CC2)n1 [Example 195, 1-(2-(4-(pyrrolidin-1-yl)-2-(trifluoromethyl)benzyl)-2,8-diazaspiro[4.5]decane-8-carbonyl)-1H-pyrazole-3-carboxamide]"
> 75%,–,> 75%,> 75%,> 75%,100 to 1000 nM,–,"CN(Cc1cc(Cl)ccc1C(F)(F)F)CC1CCN(C(=O)n2ccc(C(=O)O)n2)CC1 [Example 209, 1-(4-(((5-chloro-2-(trifluoromethyl)benzyl)(methyl)amino)methyl)piper-idine-1-carbonyl)-1H-pyrazole-3-carboxylic acid]"
> 75%,0 to 25%,> 75%,–,–,–,–,"O=C(O)c1ccn(C(=O)N2C[C@H]3C[C@H](Oc4cc(Cl)cc(Cl)c4)C[C@H]3C2)n1 [Example 230, 1-(trans-5-(3,5-dichlorophenoxy)octahydrocyclopenta [c]pyrrole-2-carbonyl)-1H-pyrazole-3-carboxylic acid]"
> 75%,–,–,–,–,–,> 75%,"NC(=O)c1ccn(C(=O)N2CCC3(CCN(Cc4cc(Cl)ccc4Cl)C3)C2)n1 (centres unmarked) [Example 426, 1-(7-(2,5-dichlorobenzyl)-2,7-diazaspiro[4.4]non-ane-2-carbonyl)-1H-pyrazole-3-carboxamide]"

# Further lines, the compound ahead of its results:
Compound,inhibition at 1 µM (MAGL [1]),inhibition at 5 mg/kg (MAGL [2]),inhibition at 1 µM (MAGL [3]),inhibition at 1 µM (FAAH [4]),inhibition at 1 µM (FAAH [5]),IC50 (FAAH [5]),inhibition at 5 mg/kg (MAGL [2]; C57Bl/6J mice)
"O=C(O)c1ccn(C(=O)N2CCC3(CCN(Cc4ccc(N5CCCC5)cc4C(F)(F)F)C3)CC2)n1 [Example 191, 1-(2-(4-(pyrrolidin-1-yl)-2-(trifluoromethyl)benzyl)-2,8-diazaspiro[4.5]decane-8-carbonyl)-1H-pyrazole-3-carboxylic acid]",> 75%,–,> 75%,0 to 25%,0 to 25%,–,–
"O=C(O)c1ccn(C(=O)N2CCC3(CCN(Cc4cccc(C(F)(F)F)c4)C3)CC2)n1 [Example 192, 1-(2-(3-(trifluoromethyl)benzyl)-2,8-diazaspiro[4.5]decane-8-carbonyl)-1H-pyrazole-3-carboxylic acid]",25 to 50%,–,> 75%,0 to 25%,0 to 25%,–,–
"O=C(O)c1ccn(C(=O)N2C[C@H]3C[C@@H](OCc4cc(F)cc(Cl)c4)C[C@H]3C2)n1 [Example 193, 1-(cis-5-((3-chloro-5-fluorobenzyl)oxy)octahydrocyclopenta [c]pyrrole-2-carbonyl)-1H-pyrazole-3-carboxylic acid]",25 to 50%,–,25 to 50%,> 75%,> 75%,–,–
"NC(=O)c1ccn(C(=O)N2CCC3(CCN(Cc4ccc(N5CCOCC5)cc4Cl)C3)CC2)n1 [Example 197, 1-(2-(2-chloro-4-morpholinobenzyl)-2,8-diazaspiro[4.5]decane-8-carbonyl)-1H-pyrazole-3-carboxamide]",> 75%,–,> 75%,> 75%,> 75%,100 to 1000 nM,–
"NC(=O)c1ccn(C(=O)N2CC3CN(Cc4ccc(Cl)cc4)CC3C2)n1 (centres unmarked) [Example 203, 1-(5-(4-chlorobenzyl)octa-hydropyrrolo[3,4-c]pyrrole-2-carbonyl)-1H-pyrazole-3-carboxamide]",> 75%,–,> 75%,> 75%,> 75%,–,–
"CC(C)c1cccc(O[C@H]2C[C@@H]3CN(C(=O)n4ccc(C(=O)O)n4)C[C@@H]3C2)c1 [Example 220, 1-(trans-5-(3-isopropylphenoxy)ocatahydrocyclo-penta[c]pyrrole-2-carbonyl)-1H-pyrazole-3-carboxylic acid]",> 75%,25 to 50%,> 75%,–,–,–,–
"O=C(O)c1ccn(C(=O)N2C[C@H]3C[C@H](Oc4cccc(-c5cccnc5)c4)C[C@H]3C2)n1 [Example 241, 1-(trans-5-(3-(pyridin-3-yl)phenoxy)octa-hydrocyclopenta[c]pyrrole-2-carbonyl)-1H-pyrazole-3-carboxylic acid]",> 75%,0 to 25%,> 75%,–,–,–,–
"CNC(=O)c1ccn(C(=O)N2CC3CN(Cc4ccc(Cl)cc4)CC3C2)n1 (centres unmarked) [Example 424, 1-(5-(4-chlorobenzyl)octahydropyrrolo [3,4-c]pyrrole-2-carbonyl)-N-methyl-1H-pyrazole-3-carboxamide]",> 75%,–,–,–,–,–,> 75%
"NC(=O)c1ccn(C(=O)N2CCC3(CCN(Cc4cc(Cl)cc(C(F)(F)F)c4)C3)C2)n1 (centres unmarked) [Example 433, 1-(7-(3-chloro-5-(trifluoromethyl)benzyl)-2,7-diazaspiro[4.4]non-ane-2-carbonyl)-1H-pyrazole-3-carboxamide]",> 75%,–,–,–,–,–,> 75%
